Measurements: ChEMBL document CHEMBL3046958, “Synthesis and Evaluation of Homologous Analogs of Anticonvulsant 5-Substituted 3,3-Diethyl-4,5-Dighdro-2(3H)-Furanones” (Med Chem Res, 2005)
Active and inactive are the calls of the source. The rule behind the calls is not given here.

How the values were obtained:
Mus musculus [1] = experiment: Anticonvulsant activity in Mus musculus CF1 (mouse) assessed as protection against maximal electroshock-induced seizures at 100 to 300 mg/kg measured after 0.5 hr; format: functional
Mus musculus [2] = experiment: Anticonvulsant activity in Mus musculus CF1 (mouse) assessed as protection against subcutaneous pentylenetetrazol-induced seizures at 100 to 300 mg/kg; format: functional, organism-based
[3] = molecular target: GABA-A receptor; agonist GABA site (Homo sapiens) (UniProt P14867+P47870+P28472+P48169+P34903+P18505+P47869+P31644+Q16445); experiment: Displacement of [3H]TBOB from GABAA receptor (unknown origin) at 10 uM; format: protein-complex assay
Mus musculus [4] = experiment: (§1) Neurotoxicity in Mus musculus CF1 (mouse) at 100 to 300 mg/kg by rotorod test; format: toxicity, organism-based; set-up: dose 100-300 mg/kg; settings: mouse, in vivo
Mus musculus [5] = experiment: Anticonvulsant activity in Mus musculus CF1 (mouse) assessed as protection against maximal electroshock-induced seizures at 100 to 300 mg/kg measured after 4 hr; format: functional
Mus musculus [6] = experiment: Neurotoxicity in Mus musculus CF1 (mouse) at 300 mg/kg by rotorod test; format: toxicity, organism-based; set-up: dose 300 mg/kg; settings: in vivo
[7] = as §1; format: toxicity, organism-based; set-up: dose 100-300 mg/kg; settings: CF1, mouse, in vivo
Mus musculus [8] = experiment: Anticonvulsant activity in Mus musculus CF1 (mouse) assessed as protection against maximal electroshock-induced seizures at 300 mg/kg; format: functional, organism-based; set-up: dose 300 mg/kg
Mus musculus [9] = experiment: Anticonvulsant activity in Mus musculus CF1 (mouse) assessed as protection against subcutaneous pentylenetetrazol-induced seizures at 300 mg/kg; format: functional, organism-based; set-up: dose 300 mg/kg
Mus musculus [10] = experiment: Anticonvulsant activity in Mus musculus CF1 (mouse) assessed as protection against subcutaneous pentylenetetrazol-induced seizures; format: functional

In the case of CCC1(CC)CC(CCNC(=O)c2ccc(Br)cc2)OC1=O (centres undefined), the Activity (Mus musculus [1]) is reported as “inactive” and the Activity (Mus musculus [2]) is reported as “inactive”.
In the case of CCC1(CC)CC(CCNC(=O)c2ccc(OC)cc2)OC1=O (centres undefined), the Activity (Mus musculus [1]) is reported as “inactive” and the Activity (Mus musculus [2]) is reported as “inactive”.
In the case of CCC1(CC)CC(COC(=O)c2ccccc2)OC1=O (centres undefined), the inhibition [3] is reported as 12.5%, the Activity (Mus musculus [1]) is reported as “inactive” and the Activity (Mus musculus [2]) is reported as “inactive”. The Activity (Mus musculus [4]) was “Non-toxic” and the Activity (Mus musculus [5]) was “inactive”.
In the case of CCCCCCCC(=O)OCC1CC(CC)(CC)C(=O)O1 (centres undefined), the Activity (Mus musculus [1]) is reported as “inactive”, the Activity (Mus musculus [2]) is reported as “inactive” and the Activity (Mus musculus [4]) is reported as “Non-toxic”. For the same compound, the Activity (Mus musculus [5]) was “inactive”.
For CCCCCCCC(=O)OCCC1CC(CC)(CC)C(=O)O1 (centres undefined), the Activity (Mus musculus [1]) was “inactive” and the Activity (Mus musculus [2]) was “inactive”.
For CCC1(CC)CC(COC(=O)c2ccc(C)cc2)OC1=O (centres undefined), the Activity (Mus musculus [1]) was “inactive”, the Activity (Mus musculus [2]) was “inactive” and the Activity (Mus musculus [4]) was “Non-toxic”. The Activity (Mus musculus [5]) was “inactive”.
With CCC1(CC)CC(CCOC(=O)c2ccccc2)OC1=O (centres undefined) the inhibition [3] was 3.86%, the Activity (Mus musculus [1]) was “inactive” and the Activity (Mus musculus [2]) was “inactive”.
For CCC(=O)OCCC1CC(CC)(CC)C(=O)O1 (centres undefined), the Activity (Mus musculus [1]) was “inactive” and the Activity (Mus musculus [2]) was “inactive”.
For CCC1(CC)CC(CCNC(=O)c2ccc(C)cc2)OC1=O (centres undefined), the Activity (Mus musculus [1]) was “inactive” and the Activity (Mus musculus [2]) was “inactive”.
In the case of CCC1(CC)CC(CO)OC1=O (centres undefined), the inhibition [3] is reported as 9.1%.
With CCC1(CC)CC(CCOC(=O)c2ccc(Br)cc2)OC1=O (centres undefined) the Activity (Mus musculus [1]) was “inactive”, the Activity (Mus musculus [2]) was “inactive” and the Activity (Mus musculus [6]) was “Toxic”.
For CCC(=O)NCCC1CC(CC)(CC)C(=O)O1 (centres undefined), the inhibition [3] was 3.62%, the Activity (Mus musculus [1]) was “inactive” and the Activity (Mus musculus [2]) was “inactive”.
With CCCCCCCC(=O)NCCC1CC(CC)(CC)C(=O)O1 (centres undefined) the Activity (Mus musculus [1]) was “inactive” and the Activity (Mus musculus [2]) was “inactive”.
Work on CCC1(CC)CC(CNC(=O)c2ccc(Br)cc2)OC1=O (centres undefined) yielded an ED50 (Mus musculus [1]; CF1, 0.5 h, dose mg/kg 100-300) of 89.9 mg/kg, a TD50 [7] of 285 mg/kg and an ED50 (Mus musculus [5]; CF1, 4 h, dose mg/kg 100-300) of 89.9 mg/kg.
With CCC(=O)OCC1CC(CC)(CC)C(=O)O1 (centres undefined) the Activity (Mus musculus [1]) was “inactive”, the Activity (Mus musculus [2]) was “inactive” and the Activity (Mus musculus [4]) was “Non-toxic”. The Activity (Mus musculus [5]) was “inactive”.
In the case of CCC1(CC)CC(CCNC(=O)c2ccccc2)OC1=O (centres undefined), the inhibition [3] is reported as 0.29%, the Activity (Mus musculus [1]) is reported as “inactive” and the Activity (Mus musculus [2]) is reported as “inactive”. For the same compound, the Activity (Mus musculus [8]) was “Active”.
For CCC1(CC)CC(CCOC(=O)c2ccc(C)cc2)OC1=O (centres undefined), the Activity (Mus musculus [1]) was “inactive”, the Activity (Mus musculus [2]) was “inactive” and the Activity (Mus musculus [9]) was “Active”.
With CCC1(CC)CC(CCOC(=O)c2ccc(OC)cc2)OC1=O (centres undefined) the Activity (Mus musculus [1]) was “inactive” and the Activity (Mus musculus [2]) was “inactive”.
For CCC1(CC)CC(COC(=O)c2ccc(Br)cc2)OC1=O (centres undefined), the Activity (Mus musculus [1]) was “inactive”, the Activity (Mus musculus [2]) was “inactive” and the Activity (Mus musculus [4]) was “Non-toxic”. For the same compound, the Activity (Mus musculus [5]) was “inactive”.
With CCC1(CC)CC(COC(=O)c2ccc(OC)cc2)OC1=O (centres undefined) the Activity (Mus musculus [1]) was “inactive”, the Activity (Mus musculus [4]) was “Non-toxic” and the Activity (Mus musculus [10]) was 300 mg/kg. For the same compound, the Activity (Mus musculus [5]) was “inactive”.
